From patent US10227323B2, “Glucosylceramide synthase inhibitors for the treatment of diseases” (BIOMARIN PHARMACEUTICAL INC., priority 2013, dated 2019)

target: T1, GCS (Canis lupus familiaris, UniProt A0A8I3MXG6); assay: Assay 1: GCS Enzymatic Assay (MDCK cell lysate, C6-NBD-Ceramide, LC/MS); assay type: biochemical, canine; details: Table 2; data marked by *
T1 sequence (A0A8I3MXG6 1-394): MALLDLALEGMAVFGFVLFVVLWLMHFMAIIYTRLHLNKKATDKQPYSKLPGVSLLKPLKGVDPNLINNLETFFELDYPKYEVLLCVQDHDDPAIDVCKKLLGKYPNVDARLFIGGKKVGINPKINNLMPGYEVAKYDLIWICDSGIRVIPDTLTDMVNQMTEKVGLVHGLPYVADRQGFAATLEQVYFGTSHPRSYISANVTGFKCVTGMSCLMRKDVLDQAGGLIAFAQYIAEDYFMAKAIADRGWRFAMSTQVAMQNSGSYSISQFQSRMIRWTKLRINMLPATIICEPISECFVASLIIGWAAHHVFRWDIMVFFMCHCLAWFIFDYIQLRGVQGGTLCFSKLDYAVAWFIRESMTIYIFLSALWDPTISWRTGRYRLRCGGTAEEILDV
How it was run: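 LC/MS/MS measurement of glucosylceramide and NBD-ceramide after a 1 h, 37 °C reaction with 100 μM UDP-glucose and 10 μM C6-NBD-ceramide gave IC50s or percent inhibition.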

Structure (SMILES)	% inhibition generated from Assay 1
O=C(N[C@H](CN1CCCC1)[C@H](O)c1ccc2c(c1)OCCO2)C(F)(F)c1cccc(Oc2ccc(F)cc2)c1 [Compound 201, N-((1R,2R)-1-(2,3-dihydrobenzo[b][1,4]dioxin-6-yl)-1-hydroxy-3-(pyrrolidin-1-yl)propan-2-yl)-2,2-difluoro-2-(3-(4-fluorophenoxy)phenyl)acetamide]	A* (the compound had a % inhibition of a percent inhibition of greater than or equal to about 50%)
O=C(N[C@H](CN1CCCC1)[C@H](O)c1ccc(OC2CC2)c(Cl)c1)C(F)(F)c1cccc(Oc2ccc(F)cc2)c1 [Compound 206, N-((1R,2R)-1-(3-chloro-4-cyclopropoxyphenyl)-1-hydroxy-3-(pyrrolidin-1-yl)propan-2-yl)-2,2-difluoro-2-(3-(4-fluorophenoxy)phenyl)acetamide]	A* (the compound had a % inhibition of a percent inhibition of greater than or equal to about 50%)
O=C(N[C@H](CN1CCCC1)[C@H](O)c1ccc2c(c1)OCCO2)C(F)(F)c1csc(-c2ccc(F)cc2)n1 [Compound 211, N-((1R,2R)-1-(2,3-dihydrobenzo[b][1,4]dioxin-6-yl)-1-hydroxy-3-(pyrrolidin-1-yl)propan-2-yl)-2,2-difluoro-2-(2-(4-fluorophenyl)thiazol-4-yl)acetamide]	B* (the compound had a % inhibition of greater than or equal to about 3% but less than about 50%)
O=C(N[C@H](CN1CCCC1)[C@H](O)c1ccc(OC2CC2)c(Cl)c1)C(F)(F)c1csc(-c2ccc(F)cc2)n1 [Compound 213, N-((1R,2R)-1-(3-chloro-4-cyclopropoxyphenyl)-1-hydroxy-3-(pyrrolidin-1-yl)propan-2-yl)-2,2-difluoro-2-(2-(4-fluorophenyl)thiazol-4-yl)acetamide]	B* (the compound had a % inhibition of greater than or equal to about 3% but less than about 50%)
O=C(N[C@H](CN1CCCC1)[C@H](O)c1ccc(OC2CC2)c(Cl)c1)C(=O)c1cnc(-c2ccc(F)cc2)s1 [Compound 215, N-((1R,2R)-1-(3-chloro-4-cyclopropoxyphenyl)-1-hydroxy-3-(pyrrolidin-1-yl)propan-2-yl)-2-(2-(4-fluorophenyl)thiazol-5-yl)-2-oxoacetamide]	B* (the compound had a % inhibition of greater than or equal to about 3% but less than about 50%)
O=C(N[C@H](CN1CCCC1)[C@H](O)c1ccc(OC2CC2)c(Cl)c1)C(F)(F)c1ccc(-c2ccc(F)cc2)s1 [Compound 218, N-((1R,2R)-1-(3-chloro-4-cyclopropoxyphenyl)-1-hydroxy-3-(pyrrolidin-1-yl)propan-2-yl)-2,2-difluoro-2-(5-(4-fluorophenyl)thiophen-2-yl)acetamide]	B* (the compound had a % inhibition of greater than or equal to about 3% but less than about 50%)
O=C(N[C@H](CN1CCCC1)[C@H](O)c1ccc(OC2CC2)c(Cl)c1)C(=O)c1ccc(-c2ccc(F)cc2)s1 [Compound 219, N-((1R,2R)-1-(3-chloro-4-cyclopropoxyphenyl)-1-hydroxy-3-(pyrrolidin-1-yl)propan-2-yl)-2-(5-(4-fluorophenyl)thiophen-2-yl)-2-oxoacetamide]	A* (the compound had a % inhibition of a percent inhibition of greater than or equal to about 50%)
O=C(N[C@H](CN1CCCC1)[C@H](O)c1cc(F)c2c(c1)OCCO2)C(F)(F)c1csc(-c2ccc(F)cc2)n1 [Compound 221, 2,2-difluoro-N-((1R,2R)-1-(8-fluoro-2,3-dihydrobenzo[b][1,4]dioxin-6-yl)-1-hydroxy-3-(pyrrolidin-1-yl)propan-2-yl)-2-(2-(4-fluorophenyl)thiazol-4-yl)acetamide]	A* (the compound had a % inhibition of a percent inhibition of greater than or equal to about 50%)
O=C(N[C@H](CN1CCCC1)[C@H](O)c1ccc(OC2CC2)c(Cl)c1)C(F)(F)c1cnc(-c2ccc(F)cc2)s1 [Compound 222, N-((1R,2R)-1-(3-chloro-4-cyclopropoxyphenyl)-1-hydroxy-3-(pyrrolidin-1-yl)propan-2-yl)-2,2-difluoro-2-(2-(4-fluorophenyl)thiazol-5-yl)acetamide]	B* (the compound had a % inhibition of greater than or equal to about 3% but less than about 50%)

same assay, conditions: Table 2; data without asterisk; read-out: IC50 (nM) generated from Assay 1

IC50	Structure (SMILES)
< 50 nM	Cn1ncc2cc(-c3ccc(C(F)(F)C(=O)N[C@H](CN4CCCC4)[C@H](O)c4ccc(OC5CC5)c(Cl)c4)cc3)ccc21 [Compound 202, N-((1R,2R)-1-(3-chloro-4-cyclopropoxyphenyl)-1-hydroxy-3-(pyrrolidin-1-yl)propan-2-yl)-2,2-difluoro-2-(4-(1-methyl-1H-indazol-5-yl)phenyl)acetamide]
< 50 nM	O=C(N[C@H](CN1CCCC1)[C@H](O)c1cc(F)c2c(c1)OCCO2)C(=O)c1cccc(Oc2ccc(F)cc2)c1 [Compound 203, N-((1R,2R)-1-(8-fluoro-2,3-dihydrobenzo[b][1,4]dioxin-6-yl)-1-hydroxy-3-(pyrrolidin-1-yl)propan-2-yl)-2-(3-(4-fluorophenoxy)phenyl)-2-oxoacetamide]
< 50 nM	O=C(N[C@H](CN1CCCC1)[C@H](O)c1ccc(OC2CC2)c(F)c1)C(F)(F)c1ccc(-c2ccc(F)cc2)cc1 [Compound 204, N-((1R,2R)-1-(4-cyclopropoxy-3-fluorophenyl)-1-hydroxy-3-(pyrrolidin-1-yl)propan-2-yl)-2,2-difluoro-2-(4′-fluoro-[1,1′-biphenyl]-4-yl)acetamide]
< 50 nM	Cn1ncc2cc(-c3ccc(C(=O)C(=O)N[C@H](CN4CCCC4)[C@H](O)c4ccc(OC5CC5)c(Cl)c4)cc3)ccc21 [Compound 205, N-((1R,2R)-1-(3-chloro-4-cyclopropoxyphenyl)-1-hydroxy-3-(pyrrolidin-1-yl)propan-2-yl)-2-(4-(1-methyl-1H-indazol-5-yl)phenyl)-2-oxoacetamide]
< 50 nM	Cn1ncc2cc(-c3ccc(C(=O)C(=O)N[C@H](CN4CCCC4)[C@H](O)c4ccc5c(c4)OCCO5)cc3)ccc21 [Compound 207, N-((1R,2R)-1-(2,3-dihydrobenzo[b][1,4]dioxin-6-yl)-1-hydroxy-3-(pyrrolidin-1-yl)propan-2-yl)-2-(4-(1-methyl-1H-indazol-5-yl)phenyl)-2-oxoacetamide]
< 50 nM	O=C(N[C@H](CN1CCCC1)[C@H](O)c1ccc(OC2CC2)c(F)c1)C(=O)c1ccc(-c2ccc(F)cc2)cc1 [Compound 208, N-((1R,2R)-1-(4-cyclopropoxy-3-fluorophenyl)-1-hydroxy-3-(pyrrolidin-1-yl)propan-2-yl)-2-(4′-fluoro-[1,1′-biphenyl]-4-yl)-2-oxoacetamide]
< 50 nM	O=C(N[C@H](CN1CCCC1)[C@H](O)c1ccc(OC2CC2)c(Cl)c1)C(=O)c1ccc2ccccc2c1 [Compound 209, N-((1R,2R)-1-(3-chloro-4-cyclopropoxyphenyl)-1-hydroxy-3-(pyrrolidin-1-yl)propan-2-yl)-2-(naphthalen-2-yl)-2-oxoacetamide]
< 50 nM	O=C(N[C@H](CN1CCCC1)[C@H](O)c1cc(F)c2c(c1)OCCO2)C(F)(F)c1cccc(Oc2ccc(F)cc2)c1 [Compound 210, 2,2-difluoro-N-((1R,2R)-1-(8-fluoro-2,3-dihydrobenzo[b][1,4]dioxin-6-yl)-1-hydroxy-3-(pyrrolidin-1-yl)propan-2-yl)-2-(3-(4-fluorophenoxy)phenyl)acetamide]
< 50 nM	Cn1ncc2cc(-c3ccc(C(F)(F)C(=O)N[C@H](CN4CCCC4)[C@H](O)c4ccc5c(c4)OCCO5)cc3)ccc21 [Compound 212, N-((1R,2R)-1-(2,3-dihydrobenzo[b][1,4]dioxin-6-yl)-1-hydroxy-3-(pyrrolidin-1-yl)propan-2-yl)-2,2-difluoro-2-(4-(1-methyl-1H-indazol-5-yl)phenyl)acetamide]
< 50 nM	O=C(N[C@H](CN1CCCC1)[C@H](O)c1ccc(OC2CC2)c(Cl)c1)C(=O)c1ccc(-c2ccccn2)cc1 [Compound 214, N-((1R,2R)-1-(3-chloro-4-cyclopropoxyphenyl)-1-hydroxy-3-(pyrrolidin-1-yl)propan-2-yl)-2-oxo-2-(4-(pyridin-2-yl)phenyl)acetamide]
< 50 nM	Cn1ncc2cc(C(=O)C(=O)N[C@H](CN3CCCC3)[C@H](O)c3ccc4c(c3)OCCO4)ccc21 [Compound 216, N-((1R,2R)-1-(2,3-dihydrobenzo[b][1,4]dioxin-6-yl)-1-hydroxy-3-(pyrrolidin-1-yl)propan-2-yl)-2-(1-methyl-1H-indazol-5-yl)-2-oxoacetamide]
< 50 nM	Cn1ncc2cc(C(=O)C(=O)N[C@H](CN3CCCC3)[C@H](O)c3cc(F)c4c(c3)OCCO4)ccc21 [Compound 217, N-((1R,2R)-1-(8-fluoro-2,3-dihydrobenzo[b][1,4]dioxin-6-yl)-1-hydroxy-3-(pyrrolidin-1-yl)propan-2-yl)-2-(1-methyl-1H-indazol-5-yl)-2-oxoacetamide]
< 50 nM	Cn1ncc2cc(-c3ccc(C(=O)C(=O)N[C@H](CN4CCCC4)[C@H](O)c4cc(F)c5c(c4)OCCO5)cc3)ccc21 [Compound 220, N-((1R,2R)-1-(8-fluoro-2,3-dihydrobenzo[b][1,4]dioxin-6-yl)-1-hydroxy-3-(pyrrolidin-1-yl)propan-2-yl)-2-(4-(1-methyl-1H-indazol-5-yl)phenyl)-2-oxoacetamide]
